A short description of the data set: Mouse i.v. blood pharmacokinetic study. Format: in vivo, female CD-1 mice. The conditions noted are these: for enterohepatic recirculation: blood concentration-time profile, in words; for clearance: female, CD-1, mouse, 1 mg/kg, read-out: Cl blood; for clearance / Vd: SSA 3 derived based on AUC0–7h; for Cmax: 2% DMSO/98% H2O. The procedure: Within these studies SSAs 3 and 5 were dosed at 1 mg kg^−1, to female CD-1 mice (n = 9 per SSA) via an intravenous tail vein bolus dose formulation as solutions in 2% DMSO/98% water. Blood taken from the mouse tail vein was extracted by protein precipitation and SSA concentration calculated. The results of these studies are shown in Fig. 12 and Table 4. page 8: For the purpose of fu and SSA-3 PK determination, samples were analysed using a Waters I-Class ultra-high-performance liquid chromatography (UHPLC) system coupled to a Waters Xevo TQ-XS mass spectrometer. Separation of analytes was achieved using an Accucore Vanquish C18+ column (1.5 µm, 50 x 2.1 mm) at a temperature of 40°C and a binary mobile phase gradient at a flow rate of 0.4 mL/min. Initial LC conditions comprised 66% solvent A (0.1% formic acid + 5 mM ammonium acetate in water), 33% solvent B (0.1% formic acid + 5 mM ammonium acetate in methanol); this was ramped to 63% B at 1.8 min and 95% B at 1.9 min, held for 0.5 min and then immediately returned to initial conditions and held for the remaining 0.5 min of the method. Sample analysis was by electrospray ionisation combined with multiple reaction monitoring in negative ion mode. The capillary voltage was 0.8 kV, desolvation gas was 600°C. For the purpose of apparent permeability determination, samples were analysed using a Waters I- Class ultra-high-performance liquid chromatography (UHPLC) system coupled to a Waters Vion mass spectrometer (Waters, Elstree, UK). Separation of analytes was achieved used an Accucore Vanquish C18+ column (1.5 µm, 50 x 2.1 mm) at a temperature of 40°C and a binary mobile phase gradient at a flow rate of 0.4 mL/min. Initial LC conditions for SSA 1-4 comprised 66% solvent A (0.1% formic acid + 5 mM ammonium acetate in water), 33% solvent B (0.1% formic acid + 5 mM ammonium acetate in methanol); this was ramped to 63% B at 1.8 min and 95% B at 1.9 min, held for 0.5 min and then immediately returned to initial conditions and held for the remaining 0.5 min of the method. Initial LC conditions for SSA 5-10 comprised 54% solvent A (0.1% formic acid + 5 mM ammonium acetate in water), 46% solvent B (0.1% formic acid + 5 mM ammonium acetate in methanol); this was ramped to 67% B at 1.8 min and 95% B at 1.9 min, held for 0.5 min and then immediately returned to initial conditions and held for the remaining 0.5 min of the method. Sample analysis was by electrospray ionisation in negative ion mode. The capillary voltage was 2.5 kV, desolvation gas was 600°C. For the purpose of PK determination of SSA 5, samples were analysed using a Waters I-Class ultra- high-performance liquid chromatography (UHPLC) system coupled to a Waters Xevo TQ-XS mass spectrometer. Separation of analytes was achieved using an Accucore Vanquish C18+ column (1.5 µm, 50 x 2.1 mm) at a temperature of 40°C and a binary mobile phase gradient at a flow rate of 0.4 mL/min. Initial LC conditions comprised 54% solvent A (0.1% formic acid + 5 mM ammonium acetate in water), 46% solvent B (0.1% formic acid + 5 mM ammonium acetate in methanol); this was ramped to 67% B at 1.8 min and 95% B at 1.9 min, held for 0.5 min and then immediately returned to initial conditions and held for the remaining 0.5 min of the method. Sample analysis was by electrospray ionisation combined with multiple reaction monitoring in negative ion mode. The capillary voltage was 0.8 kV, desolvation gas was 600°C. Mean blood concentration-time profile: Within these studies SSAs 3 and 5 were dosed at 1 mg/kg, to female CD-1 mice (n=9 per SSA) via an intravenous tail vein bolus dose formulation as solutions in 2 % DMSO/98 % water. Blood taken from the mouse tail vein was extracted by protein precipitation. SSA concentrations were calculated through UPLC-MS/MS techniques, with tolbutamide as the internal standard. The assay met the acceptance criteria with >7 calibration standards within ± 20% of nominal concentration. The lower limit of quantitation was 2 ng/mL for both compounds. […]

Where [1] appears, read: blood, iv, i.v. 1 mg kg^−1, female CD-1 mice.
The mark [2] stands for this setting: i.v. 1 mg kg^−1, female CD-1 mice.
[3] abbreviates: mouse, blood, iv, i.v. 1 mg kg^−1, female CD-1 mice.
Setting [4] is: mouse, iv, blood, i.v. 1 mg kg^−1, female CD-1 mice.

With `O=C(NCS(=O)(=O)O)Nc1ccc(C(F)(F)F)cc1` [SSA 3], the “Blood concentration of SSA” value (0.5 h post i.v. dosing) is reported as 344 nM. Also, the “Blood concentration of SSA” value (4.0 h post i.v. dosing) is 99 nM. Besides, the enterohepatic recirculation entry (i.v. 1 mg kg^−1) is recorded as “undergoing enterohepatic recirculation”. The clearance under setting [1] was 25 mL/min/kg. In addition, the “Cl blood as % liver blood flow (LBF)” value under setting [2] amounted to 28 % LBF. Further, under setting [3], the Vd worked out at 0.8 L/kg. Under setting [4], the peak level (Cmax) was 8090 nM, the AUC(0-t) was determined as 2.28 µM·h and the Tmax is 4.98 min.

For the compound `O=C(NCS(=O)(=O)O)Nc1ccccc1-c1nc2ccccc2s1` [SSA 5], for the setting “0.5 h post i.v. dosing”, the “Blood concentration of SSA” value turned out to be 643 nM. For the same compound, the “Blood concentration of SSA” value (4.0 h post i.v. dosing) was found to be 11 nM. Further, for the setting “i.v. 1 mg kg^−1”, the enterohepatic recirculation result is on record as “did not show any evidence of enterohepatic recirculation”. Also, under setting [1], the clearance is approximately 31 mL/min/kg. Under setting [2], the “Cl blood as % liver blood flow (LBF)” value is listed as 34 % LBF. For the setting “mouse, blood, iv, elimination half-life, i.v. 1 mg kg^−1, female CD-1 mice”, this compound showed a half-life of 42 min. Besides, the Vd under setting [3] is 0.9 L/kg. For the same compound, under setting [4], the highest level (Cmax) was 4050 nM, the AUC(0-inf) worked out at 1.46 µM·h, the AUC(0-t) was 1.45 µM·h and the Tmax worked out at 4.98 min.

The values are drawn from article PMC9400670, “Establishing the selective phospholipid membrane coordination, permeation and lysis properties for a series of ‘druggable’ supramolecular self-associating antimicrobial amphiphiles” (Chemical Science, 2022).
